Literature values in paper PMC3629230, “Permeability Enhancers Dramatically Increase Zanamivir Absolute Bioavailability in Rats: Implications for an Orally Bioavailable Influenza Treatment” (PLoS ONE, 2013).

Key:
[1] = system: flu strains; settings: cited from earlier work
[2] = system: seasonal H1N1; parameters: method as in earlier work; settings: 2009 tests; cited from earlier work
[3] = system: pandemic flu strains; parameters: method as in earlier work; settings: 2009 tests; cited from earlier work

| Compound | Resistance [1] | Strains resistant [2] [%] | Strains resistant [3] [%] |
| --- | --- | --- | --- |
| CC(=O)N[C@H]1[C@H]([C@H](O)[C@H](O)CO)OC(C(=O)O)=C[C@@H]1N=C(N)N [Zanamivir, zanamivir] | has not been observed | – | – |
| CCOC(=O)C1=C[C@@H](OC(CC)CC)[C@H](NC(C)=O)[C@@H](N)C1 [oseltamivir] | – | 99.6 | 0.5 |
